In brackets after ≈: the same amount, converted by molar mass.
Key:
Type in all cases: functional, cell-based
MOLT-4 = test: Cytostatic activity against Homo sapiens (human) Molt4/C8 cells after 72 hr by coulter counter analysis; conditions: MOLT-4, 72 h
L1210 = test: Cytostatic activity against Mus musculus (mouse) L1210 cells after 48 hr by coulter counter analysis; conditions: L1210, 48 h
CCRF-CEM = test: Cytostatic activity against Homo sapiens (human) CEM cells after 72 hr by coulter counter analysis

COc1ccc(/C=C/c2ccc(C)cc2)cc1
IC50 (MOLT-4): > 200 µg/mL
IC50 (L1210): > 200 µg/mL
IC50 (CCRF-CEM): > 200 µg/mL

CNC(=O)/C(=C/c1ccc(OC)cc1)c1ccccc1
IC50 (MOLT-4): 166 µg/mL (≈ 621 µM)
IC50 (L1210): 68 µg/mL (≈ 254 µM)
IC50 (CCRF-CEM): 128 µg/mL (≈ 479 µM)

Cc1ccc(/C=C/c2ccccc2F)cc1
IC50 (MOLT-4): 30 µg/mL (≈ 141 µM)
IC50 (L1210): 72 µg/mL (≈ 339 µM)
IC50 (CCRF-CEM): 78 µg/mL (≈ 367 µM)

Fc1ccc(/C=C/c2ccccc2F)cc1
IC50 (MOLT-4): 61 µg/mL (≈ 282 µM)
IC50 (L1210): 62 µg/mL (≈ 287 µM)
IC50 (CCRF-CEM): 83 µg/mL (≈ 384 µM)

Fc1ccc(/N=C/c2cccs2)cc1Cl
IC50 (MOLT-4): 16 µg/mL (≈ 66.7 µM)
IC50 (L1210): 3.2 µg/mL (≈ 13.3 µM)
IC50 (CCRF-CEM): 25 µg/mL (≈ 104 µM)

COC(=O)/C(=C/c1ccccc1Cl)c1ccccc1
IC50 (MOLT-4): 16 µg/mL (≈ 58.7 µM)
IC50 (L1210): 25 µg/mL (≈ 91.7 µM)
IC50 (CCRF-CEM): 19 µg/mL (≈ 69.7 µM)

N[C@@H](Cc1ccc(N(CCCl)CCCl)cc1)C(=O)O [MELPHALAN]
IC50 (MOLT-4): 3.2 µg/mL (≈ 10.5 µM)
IC50 (L1210): 2.1 µg/mL (≈ 6.88 µM)
IC50 (CCRF-CEM): 2.5 µg/mL (≈ 8.19 µM)

O=C(O)/C(=C/c1ccccc1O)c1ccccc1
IC50 (MOLT-4): > 200 µg/mL
IC50 (L1210): > 200 µg/mL
IC50 (CCRF-CEM): > 200 µg/mL

CNC(=O)/C(=C/c1ccccc1O)c1ccccc1
IC50 (MOLT-4): > 200 µg/mL
IC50 (L1210): > 200 µg/mL
IC50 (CCRF-CEM): > 200 µg/mL

CNC(=O)/C(=C/c1ccccc1Cl)c1ccccc1
IC50 (MOLT-4): 77 µg/mL (≈ 283 µM)
IC50 (L1210): 65 µg/mL (≈ 239 µM)
IC50 (CCRF-CEM): 60 µg/mL (≈ 221 µM)

Fc1ccc(/C=C/c2ccccc2)cc1
IC50 (MOLT-4): > 200 µg/mL
IC50 (L1210): > 200 µg/mL
IC50 (CCRF-CEM): > 200 µg/mL

COC(=O)/C(=C/c1ccc(OC)cc1)c1ccccc1
IC50 (MOLT-4): 71 µg/mL (≈ 265 µM)
IC50 (L1210): 66 µg/mL (≈ 246 µM)
IC50 (CCRF-CEM): 71 µg/mL (≈ 265 µM)

COc1ccc(/C=C/c2ccc(F)cc2)cc1
IC50 (MOLT-4): > 200 µg/mL
IC50 (L1210): 26 µg/mL (≈ 114 µM)
IC50 (CCRF-CEM): 156 µg/mL (≈ 683 µM)

O=C(O)/C(=C/c1ccccc1F)c1ccccc1
IC50 (MOLT-4): 89 µg/mL (≈ 367 µM)
IC50 (L1210): > 200 µg/mL
IC50 (CCRF-CEM): > 200 µg/mL

CCNC(=O)/C(=C/c1ccc(OC)cc1)c1ccccc1
IC50 (MOLT-4): 150 µg/mL (≈ 533 µM)
IC50 (L1210): 148 µg/mL (≈ 526 µM)
IC50 (CCRF-CEM): 116 µg/mL (≈ 412 µM)

O=C(O)/C(=C/c1ccccc1Cl)c1ccccc1
IC50 (MOLT-4): 37 µg/mL (≈ 143 µM)
IC50 (L1210): 76 µg/mL (≈ 294 µM)
IC50 (CCRF-CEM): 93 µg/mL (≈ 359 µM)

Cc1ccc(/C=C/c2ccc(N(C)C)cc2)cc1
IC50 (MOLT-4): > 200 µg/mL
IC50 (L1210): 143 µg/mL (≈ 602 µM)
IC50 (CCRF-CEM): > 200 µg/mL

Fc1ccc(/N=C/c2ccccc2Cl)cc1
IC50 (MOLT-4): 0.77 µg/mL (≈ 3.3 µM)
IC50 (L1210): 6 µg/mL (≈ 25.7 µM)
IC50 (CCRF-CEM): 2.1 µg/mL (≈ 8.99 µM)

CNC(=O)/C(=C/c1ccccc1F)c1ccccc1
IC50 (MOLT-4): 72 µg/mL (≈ 282 µM)
IC50 (L1210): 85 µg/mL (≈ 333 µM)
IC50 (CCRF-CEM): 89 µg/mL (≈ 349 µM)

CCNC(=O)/C(=C/c1ccccc1)c1ccccc1
IC50 (MOLT-4): 112 µg/mL (≈ 446 µM)
IC50 (L1210): 132 µg/mL (≈ 525 µM)
IC50 (CCRF-CEM): 26 µg/mL (≈ 103 µM)

Clc1ccccc1/C=N/c1ccc(Br)cc1
IC50 (MOLT-4): 1.5 µg/mL (≈ 5.09 µM)
IC50 (L1210): 2.1 µg/mL (≈ 7.13 µM)
IC50 (CCRF-CEM): 4.5 µg/mL (≈ 15.3 µM)

CCN(CC)C(=O)/C(=C/c1ccccc1Cl)c1ccccc1
IC50 (MOLT-4): 14 µg/mL (≈ 44.6 µM)
IC50 (L1210): 24 µg/mL (≈ 76.5 µM)
IC50 (CCRF-CEM): 18 µg/mL (≈ 57.4 µM)

Fc1ccc(/N=C/c2ccccc2Cl)cc1Cl
IC50 (MOLT-4): 3.9 µg/mL (≈ 14.5 µM)
IC50 (L1210): 6.4 µg/mL (≈ 23.9 µM)
IC50 (CCRF-CEM): 10 µg/mL (≈ 37.3 µM)

Source: ChEMBL document CHEMBL3044679, “Synthesis and biological evaluation of some stilbene derivatives” (Med Chem Res, 2011)
